# Experimental data taken from patent US6737383B1, “Herbicidal oxadiazolidines” (priority 1999, dated 2004).
# Legend:
# [1] = tested on: wild oat; experiment: Test B pre/postemergence wild oat; assay type: in vivo, Avena fatua; conditions: for Wild oats plant response rating: scale of 0 to 10 where 0 is no effect and 10 is complete control
# How it was run: (§1)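 Test chemicals in a non-phytotoxic solvent mixture with surfactant were sprayed preemergence onto planted seeds and postemergence onto plants 2 to 18 cm tall (1- to 4-leaf stage). After twelve to sixteen days in a greenhouse, injury was visually rated against untreated controls from 0 (no effect) to 10 (complete control).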
# [2] = tested on: blackgrass; experiment: Test B pre/postemergence blackgrass; assay type: in vivo, Alopecurus myosuroides
# How it was run: as §1
# [3] = tested on: velvetleaf; experiment: Test B pre/postemergence velvetleaf; assay type: in vivo, Abutilon theophrasti; conditions: for Velvetleaf plant response rating: scale of 0 to 10 where 0 is no effect and 10 is complete control
# How it was run: as §1
# [4] = tested on: duck salad; experiment: Test B flood test duck salad; assay type: in vivo, Heteranthera limosa
# How it was run: (§2)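 Each value is a visual injury score relative to controls, with 10 meaning complete control and 0 no effect. Evaluation took place twelve to sixteen days after the 2-leaf-stage plants were treated and kept in the greenhouse.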
# [5] = tested on: corn; experiment: Test B pre/postemergence corn; assay type: in vivo, Zea mays; conditions: for Corn plant response rating: scale of 0 to 10 where 0 is no effect and 10 is complete control
# How it was run: as §1
# [6] = tested on: soybean; experiment: Test B pre/postemergence soybean; assay type: in vivo, Glycine max; conditions: for Soybean plant response rating: scale of 0 to 10 where 0 is no effect and 10 is complete control
# How it was run: as §1
# [7] = tested on: surinam grass; experiment: Test B pre/postemergence surinam grass; assay type: in vivo, Brachiaria decumbens
# How it was run: as §1
# [8] = tested on: cocklebur; experiment: Test B pre/postemergence cocklebur; assay type: in vivo, Xanthium strumarium; conditions: for Cocklebur plant response rating: scale of 0 to 10 where 0 is no effect and 10 is complete control
# How it was run: as §1
# [9] = tested on: smallflower flatsedge; experiment: Test B flood test smallflower flatsedge; assay type: in vivo, Cyperus difformis
# How it was run: as §2
# [10] = tested on: bedstraw; experiment: Test B pre/postemergence bedstraw; assay type: in vivo, Galium aparine; conditions: Preemergence, scale of 0 to 10 where 0 is no effect and 10 is complete control
# How it was run: as §1
# [11] = tested on: wheat; experiment: Test B pre/postemergence wheat; assay type: in vivo, Triticum aestivum; conditions: for Wheat plant response rating: scale of 0 to 10 where 0 is no effect and 10 is complete control
# How it was run: as §1
# [12] = tested on: sugar beet; experiment: Test B pre/postemergence sugar beet; assay type: in vivo, Beta vulgaris; conditions: for Sugarbeets plant response rating: scale of 0 to 10 where 0 is no effect and 10 is complete control
# How it was run: as §1
# [13] = tested on: rice; experiment: Test B flood test rice; assay type: in vivo, Oryza sativa
# How it was run: as §2
# [14] = tested on: bamyardgrass; experiment: Test B flood test barnyardgrass; assay type: in vivo, Echinochloa crus-galli
# How it was run: as §2
# [15] = tested on: crabgrass; experiment: Test B pre/postemergence crabgrass; assay type: in vivo, Digitaria sanguinalis; conditions: for Crabgrass plant response rating: scale of 0 to 10 where 0 is no effect and 10 is complete control
# How it was run: as §1
# [16] = tested on: purple nutsedge; experiment: Test B pre/postemergence purple nutsedge; assay type: in vivo, Cyperus rotundus; conditions: for Nutsedge plant response rating: scale of 0 to 10 where 0 is no effect and 10 is complete control
# How it was run: as §1
# [17] = Postemergence, Rate 125 g/ha, scale 0 to 10, 0 is no effect, 10 is complete control
# [18] = Preemergence, Rate 62 g/ha, scale 0 to 10 (0 no effect, 10 complete control)
# [19] = Rate 500 g/ha, Postemergence, scale 0 to 10, 0 no effect, 10 complete control
# [20] = Preemergence, Rate 250 g/ha, scale of 0 to 10 where 0 is no effect and 10 is complete control
# [21] = Preemergence, Rate 500 g/ha, scale of 0 to 10 where 0 is no effect and 10 is complete control
# [22] = Rate 62 g/ha, Postemergence, scale of 0 to 10 where 0 is no effect and 10 is complete control
# [23] = Rate 250 g/ha, Postemergence, scale of 0 to 10 where 0 is no effect and 10 is complete control
# [24] = Postemergence (flood test), Rate 125 g/ha, scale 0 to 10, 0 is no effect, 10 is complete control
# [25] = Rate 62 g/ha, Postemergence (flood test species), scale of 0 to 10 where 0 is no effect and 10 is complete control
# [26] = Rate 62 g/ha, flood test species, Pre-emergence, visual evaluation after twelve to sixteen days
# [27] = Rate 125 g/ha, Pre-emergence, flood test species, scale 0 to 10 where 0 is no effect and 10 is complete control
# [28] = Rate 250 g/ha, Pre-emergence, flood-test species, scale 0 to 10, 0 is no effect, 10 is complete control
# [29] = Rate 500 g/ha, listed under Postemergence (flood test species), scale 0 to 10, 0 no effect, 10 complete control
# [30] = Rate 500 g/ha, Pre-emergence, flood test species, scale 0 to 10 (0 no effect, 10 complete control)
compound,measurement,setting,value
CC(C)N(C(=O)n1oc(=O)n(C2CCC2)c1=O)c1ccc(F)cc1F [Compound 351],"Plant response rating, Wild oats",[1]; [17],0
same,"Plant response rating, Wild oats",[1]; [18],0
same,Wild oats plant response rating (0 to 10 scale),"[1]; Preemergence, Rate 125 g/ha",0
same,Wild oats plant response rating,"[1]; Preemergence, Rate 250 g/ha",2
same,Wild oats plant response rating,"[1]; Preemergence, Rate 500 g/ha",4
same,Wild oats plant response rating,"[1]; Rate 62 g/ha, Postemergence",0
same,"Plant response rating, Wild oats",[1]; [19],5
same,"Plant response rating, Blackgrass",[2]; [17],2
same,"Plant response rating, Blackgrass",[2]; [18],0
same,Blackgrass plant response rating (0 to 10 scale),"[2]; Preemergence, Rate 125 g/ha",2
same,Blackgrass plant response rating,[2]; [20],3
same,Blackgrass plant response rating,[2]; [21],8
same,Blackgrass plant response rating,[2]; [22],0
same,"Plant response rating, Blackgrass",[2]; [23],4
same,"Plant response rating, Blackgrass",[2]; [19],4
same,"Plant response rating, Velvetleaf",[3]; [17],0
same,"Plant response rating, Velvetleaf",[3]; [18],0
same,Velvetleaf plant response rating (0 to 10 scale),"[3]; Preemergence, Rate 125 g/ha",3
same,Velvetleaf plant response rating,"[3]; Preemergence, Rate 250 g/ha",4
same,Velvetleaf plant response rating,"[3]; Preemergence, Rate 500 g/ha",5
same,Velvetleaf plant response rating,"[3]; Rate 62 g/ha, Postemergence",0
same,"Plant response rating, Velvetleaf",[3]; [19],6
same,"Plant response rating, Ducksalad",[4]; [24],0
same,Ducksalad plant response rating,[4]; [25],0
same,"Plant response rating, Ducksalad (0 to 10 scale, 0 is no effect, 10 is complete control)",[4]; [26],0
same,Ducksalad plant response rating,[4]; [27],0
same,Ducksalad plant response rating,[4]; [28],0
same,"Plant response rating, Ducksalad",[4]; [29],4
same,Ducksalad plant response rating,[4]; [30],0
same,"Plant response rating, Corn",[5]; [17],0
same,"Plant response rating, Corn",[5]; [18],0
same,Corn plant response rating (0 to 10 scale),"[5]; Preemergence, Rate 125 g/ha",0
same,Corn plant response rating,"[5]; Preemergence, Rate 250 g/ha",3
same,Corn plant response rating,"[5]; Preemergence, Rate 500 g/ha",6
same,Corn plant response rating,"[5]; Rate 62 g/ha, Postemergence",0
same,"Plant response rating, Corn",[5]; [19],0
same,"Plant response rating, Soybean",[6]; [17],1
same,"Plant response rating, Soybean",[6]; [18],0
same,Soybean plant response rating (0 to 10 scale),"[6]; Preemergence, Rate 125 g/ha",0
same,Soybean plant response rating,"[6]; Preemergence, Rate 250 g/ha",0
same,Soybean plant response rating,"[6]; Preemergence, Rate 500 g/ha",2
same,Soybean plant response rating,"[6]; Rate 62 g/ha, Postemergence",1
same,"Plant response rating, Soybean",[6]; [19],2
same,"Plant response rating, B. signalgrass",[7]; [17],0
same,"Plant response rating, B. signalgrass",[7]; [18],0
same,"B. signalgrass plant response rating (0 to 10 scale, 0 is no effect, 10 is complete control)","[7]; Preemergence, Rate 125 g/ha",0
same,B. signalgrass plant response rating,[7]; [20],2
same,B. signalgrass plant response rating,[7]; [21],4
same,B. signalgrass plant response rating,[7]; [22],0
same,"Plant response rating, B. signalgrass",[7]; [23],0
same,"Plant response rating, B. signalgrass",[7]; [19],4
same,"Plant response rating, Cocklebur",[8]; [17],0
same,"Plant response rating, Cocklebur",[8]; [18],0
same,Cocklebur plant response rating (0 to 10 scale),"[8]; Preemergence, Rate 125 g/ha",0
same,Cocklebur plant response rating,"[8]; Preemergence, Rate 250 g/ha",0
same,Cocklebur plant response rating,"[8]; Preemergence, Rate 500 g/ha",0
same,Cocklebur plant response rating,"[8]; Rate 62 g/ha, Postemergence",0
same,"Plant response rating, Cocklebur",[8]; [19],2
same,"Plant response rating, S. Flatsedge",[9]; [24],6
same,S. Flatsedge plant response rating,[9]; [25],0
same,"Plant response rating, S. Flatsedge (0 to 10 scale, 0 is no effect, 10 is complete control)",[9]; [26],0
same,S. Flatsedge plant response rating,[9]; [27],0
same,S. Flatsedge plant response rating,[9]; [28],0
same,"Plant response rating, S. Flatsedge",[9]; [29],8
same,S. Flatsedge plant response rating,[9]; [30],0
same,Bedstraw plant response rating,[10]; Rate 250 g/ha,9
same,Bedstraw plant response rating,[10]; Rate 500 g/ha,10
same,"Plant response rating, Wheat",[11]; [17],0
same,"Plant response rating, Wheat",[11]; [18],0
same,Wheat plant response rating (0 to 10 scale),"[11]; Preemergence, Rate 125 g/ha",0
same,Wheat plant response rating,"[11]; Preemergence, Rate 250 g/ha",0
same,Wheat plant response rating,"[11]; Preemergence, Rate 500 g/ha",2
same,Wheat plant response rating,"[11]; Rate 62 g/ha, Postemergence",0
same,"Plant response rating, Wheat",[11]; [19],2
same,"Plant response rating, Sugarbeets",[12]; [17],0
same,"Plant response rating, Sugarbeets",[12]; [18],2
same,Sugarbeets plant response rating (0 to 10 scale),"[12]; Preemergence, Rate 125 g/ha",2
same,Sugarbeets plant response rating,"[12]; Preemergence, Rate 250 g/ha",6
same,Sugarbeets plant response rating,"[12]; Preemergence, Rate 500 g/ha",8
same,Sugarbeets plant response rating,"[12]; Rate 62 g/ha, Postemergence",0
same,"Plant response rating, Sugarbeets",[12]; [19],2
same,"Plant response rating, Rice",[13]; [24],0
same,Rice plant response rating,[13]; [25],0
same,"Plant response rating, Rice (0 to 10 scale, 0 is no effect, 10 is complete control)",[13]; [26],0
same,Rice plant response rating,[13]; [27],0
same,Rice plant response rating,[13]; [28],0
same,"Plant response rating, Rice",[13]; [29],0
same,Rice plant response rating,[13]; [30],0
same,"Plant response rating, Barnyardgrass",[14]; [24],3
same,Barnyardgrass plant response rating,[14]; [25],0
same,"Plant response rating, Barnyardgrass (0 to 10 scale, 0 is no effect, 10 is complete control)",[14]; [26],0
same,Barnyardgrass plant response rating,[14]; [27],0
same,"Plant response rating, Barnyardgrass","[14]; Rate 250 g/ha, Postemergence (flood test species), scale of 0 to 10 where 0 is no effect and 10 is complete control",3
same,Barnyardgrass plant response rating,[14]; [28],0
same,"Plant response rating, Barnyardgrass",[14]; [29],5
same,Barnyardgrass plant response rating,[14]; [30],0
same,"Plant response rating, Crabgrass",[15]; [17],1
same,"Plant response rating, Crabgrass",[15]; [18],7
same,Crabgrass plant response rating (0 to 10 scale),"[15]; Preemergence, Rate 125 g/ha",10
same,Crabgrass plant response rating,"[15]; Preemergence, Rate 250 g/ha",10
same,Crabgrass plant response rating,"[15]; Preemergence, Rate 500 g/ha",10
same,Crabgrass plant response rating,"[15]; Rate 62 g/ha, Postemergence",0
same,"Plant response rating, Crabgrass",[15]; [19],9
same,"Plant response rating, Nutsedge",[16]; [17],0
same,"Plant response rating, Nutsedge",[16]; [18],0
same,Nutsedge plant response rating (0 to 10 scale),"[16]; Preemergence, Rate 125 g/ha",0
same,Nutsedge plant response rating,"[16]; Preemergence, Rate 250 g/ha",0
same,Nutsedge plant response rating,"[16]; Preemergence, Rate 500 g/ha",9
same,Nutsedge plant response rating,"[16]; Rate 62 g/ha, Postemergence",0
same,"Plant response rating, Nutsedge",[16]; [19],0
